# Measurements reported in article PMC12395054, “Targeting MDM2 homodimer and heterodimer disruption with DRx-098D in TP53 wild-type and mutant cancer cells” (Molecular Therapy Oncology, 2025).
# What was measured:
# [1] = molecular target: T1, MDM2:MDMX heterodimer (Homo sapiens, UniProt Q00987); assay: Proximity ligation assay, endogenous FL-MDM2 and MDMX in A549; type: cell-based; conditions: A549 (TP53 WT), 10% FBS
# T1 construct: PLA of endogenous FL-MDM2 and MDMX in A549; endogenous in cells; host or cells: A549
# T1 sequence (Q00987 whole entry, one chain of several): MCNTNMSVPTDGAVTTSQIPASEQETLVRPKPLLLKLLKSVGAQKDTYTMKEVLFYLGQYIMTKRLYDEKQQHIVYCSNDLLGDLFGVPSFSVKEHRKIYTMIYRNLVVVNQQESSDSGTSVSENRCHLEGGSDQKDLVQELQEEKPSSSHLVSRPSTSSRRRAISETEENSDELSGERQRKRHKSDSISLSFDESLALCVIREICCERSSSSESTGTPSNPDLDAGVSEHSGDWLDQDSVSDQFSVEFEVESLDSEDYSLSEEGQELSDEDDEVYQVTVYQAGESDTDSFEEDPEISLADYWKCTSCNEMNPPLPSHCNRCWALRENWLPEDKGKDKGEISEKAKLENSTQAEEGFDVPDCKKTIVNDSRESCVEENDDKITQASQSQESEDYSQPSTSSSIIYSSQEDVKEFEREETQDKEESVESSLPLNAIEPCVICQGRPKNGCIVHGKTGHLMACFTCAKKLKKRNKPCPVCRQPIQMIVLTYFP
# [2] = test system: HCT116 TP53 null cells; assay: Cell viability (CellTiter Glo 2.0); type: cell-based, human; conditions: 24 h, 2% FBS
# Method: Immunocytochemistry. HCT116 TP53 null cells were seeded at 0.5 x 10^5 cells per well of a 12-well plate containing a sterilised 0.13-0.17mm glass coverslip in complete DMEM and incubated overnight. Cells were fixed in 4% paraformaldehyde (Sigma) for 15 minutes at room temperature, then permeabilised with 0.1% triton X100 (Sigma) for 4 minutes at room temperature. Cells were then blocked in 10% donkey serum, 1% BSA in PBS for 1 Hr at room temperature. Following blocking, cells were co-incubated in MDM2 (mouse) and MDMX (rabbit) primary antibodies overnight at 4 °C. Subsequently, secondary Alexa Fluor antibodies were co-incubated for a further 1 Hr at room temperature. […]
# RTCA xCELLigence. Real-time cellular analysis (RTCA) of A549 cells was measured utilising the label-free cellular growth xCELLigence platform (Roche Applied Science, Agilent Technologies), where-by cellular impedance was leveraged as an indirect indicator of relative cell growth (i.e., cell index; CI). […] Relative growth (Δ growth) of treated A549 cells was assessed as a % difference of vehicle after 72 Hrs post-treatment (i.e., 100% relative cell growth at experiment endpoint).
# Cell Viability. For MOLM-13, THP-1 (Fig. 3A), HCT116 TP53 wild-type, HCT116 TP53 null (Fig. 3D), HEK293, and IMR-90 (Fig. 3E) cells, relative cell viability was assessed via CellTiter Glo 2.0 Cell Viability Assay (Promega: […]
compound,measurement,setting,value
COc1cc(C(=O)O)ccc1NC(=O)[C@@H]1N[C@@H](CC(C)(C)C)[C@](C#N)(c2ccc(Cl)cc2F)[C@H]1c1cccc(Cl)c1F [Idasanutlin],"Endogenous MDM2 heterodimerization, PLA",[1],did not affect MDM2 heterodimerization
same,Relative cell viability / anti-proliferative activity (in words),[2],no anti-proliferative activity
